Test results published in US20130004589A1, “DIVALENT CATION/ANION PAIR CONTAINING COMPOSITIONS AND METHODS FOR TREATING AND/OR PREVENTING ENZYMATIC IRRITATION” (priority 2011, published 2013).

Tests used:
trypsin [1] = assay: EnzChek trypsin inhibition assay of talc mixed with divalent cation salts (Example 3); type: biochemical; conditions: for % synergistic activity relative to hypothetic additive value: Table 3, all materials 0.1% (g/mL)
Procedure: The objective of the following experiment was to determine whether and to what extent adding a divalent cation to talc inhibited trypsin activity in an in vitro assay. The inhibition of trypsin-induced cleavage of a fluorescent casein peptide was measured using the EnzChek™ protease assay kit, following manufacturer's instructions (EnzChek™ Protease Assay Kits Product Information, Revised; Molecular Probes, Eugene Oreg.). […] Trypsin working solution (Sigma, St. Louis, Mo., unit/mL) was prepared in digestion buffer provided in the assay kit. Stock solution of BODIPY FL casein (trypsin substrate, mg/mL) was prepared by adding 0.2 mL to the substrate vials (provided in kit), and the final substrate working solution (10 microgram/mL) was prepared by dilution in digestion buffer (pH 7.8). Following incubation of the trypsin, with or without the test materials, with the BODIPY fluorescent casein substrate, at room temperature for one hour, fluorescence was measured (excitation 485 nm/emission 530 nm) using a SpectraMax microtiter plate reader (Molecular Devices Corporation, Sunnyvale, Calif.) and Softmax Pro software (Molecular Devices Corporation). Each experiment was performed in three replicates.

trypsin [2] = assay: EnzChek trypsin inhibition assay of zinc oxide/acid mixtures and zinc oxide formulations (Example 4); type: biochemical; conditions: Example 4 conclusions
Procedure: The objective of the following experiment was to determine whether and to what extent adding an acid to a formulation containing zinc oxide had on inhibition of trypsin activity in an in vitro assay. The inhibition of trypsin-induced cleavage of a fluorescent casein peptide was measured using the EnzChek™ protease assay kit, following manufacturer's instructions (EnzChek™ Protease Assay Kits Product Information, Revised; Molecular Probes, Eugene Oreg.). Briefly, mixtures of zinc oxide and acid at different concentrations were prepared in 1×PBS (pH 7.4) and their pH was recorded as listed in the Tables 5-8. Trypsin working solution (Sigma, St. Louis, Mo., unit/mL) was prepared in digestion buffer provided in the assay kit. Stock solution of BODIPY FL casein (trypsin substrate, mg/mL) was prepared by adding 0.2 mL to the substrate vials (provided in kit), and the final substrate working solution (10 microgram/mL) was prepared by dilution in digestion buffer (pH 7.8). Following incubation of the trypsin, with or without the test materials (50 μl), with the BODIPY fluorescent casein substrate, at room temperature for one hour, fluorescence was measured (excitation 485 nm/emission 530 nm) using a SpectraMax microtiter plate reader (Molecular Devices Corporation, Sunnyvale, Calif.) and Softmax Pro software (Molecular Devices Corporation). Each experiment was performed in three replicates.

SMILES | % synergistic activity relative to hypothetic additive value (trypsin [1]) [%] | other results
[Cl-].[Cl-].[Mg+2] [Magnesium chloride] | – | trypsin inhibitory activity, result in words (trypsin [1]; Example 3, Table 4 conclusions): moderate to low levels
[O]=[Zn] [ZnO, zinc oxide] | – | trypsin inhibitory activity, result in words (trypsin [2]): minimal protease activity
[Ca+2].[Cl-].[Cl-] [Calcium chloride] | −0.26 | –
CC(=O)[O-].CC(=O)[O-].O.[Ca+2] [Calcium acetate monohydrate] | 3.10 | –
